Source: patent US20240415825A1, “COMPOUNDS FOR THE TREATMENT OF MALARIA” (FUNDACIÓ INSTITUT DE BIOENGINYERIA DE CATALUNYA, priority 2021, published 2024)
Where two headings read alike, the source gives them in different places.

Key:
P. falciparum 3D7 strain = experiment: P. falciparum growth inhibition assay (3D7 strain); format: cell-based, Plasmodium falciparum
Protocol: After the synchronization process, a new culture at 1.5% parasitemia and 2% hematocrit was established and 150 μL aliquots of it were transferred to 96-well plates.
The required amounts of peptides, antimalarial compounds and dyes were added in each well at different concentrations and in triplicates. A positive growth control of untreated parasites and a negative growth control of parasites treated with a lethal dose of chloroquine (1 μM) were also included.
Parasites were grown for 48 h, a complete replication cycle, in standard culturing conditions (5% O2, 5% CO2, and 90% N2 at 37° C.). After the incubation period, 3 μL of culture from each well were mixed with 197 μL of PBS containing 0.1 μM Syto 11 (Thermo Fisher Scientific Inc), to obtain a final concentration of ca. 1-10×10^6 cells/ml.
Parasitemia was assessed by flow cytometry using a LSRFortessa flow cytometer (BD Biosciences, San Jose, CA, USA) set up with the 4 lasers, 20 parameters standard configuration. The single-cell population was selected on a forward-side scatter scattergram.
Growth inhibition was calculated taking as reference values both the growth rate of the untreated culture and the growth rate of the culture treated with chloroquine.

[1] = system: human umbilical vein endothelial cell cultures; experiment: Cytotoxicity (CC50) and in vitro therapeutic index; format: cell-based; conditions: 50% cytotoxic concentration (CC50)/IC50 in 3D7 strain
[2] = Plasmodium falciparum, 3D7 strain, Example 8, read-out: IC50 in 3D7 strain

Row | IC50 (P. falciparum 3D7 strain; [2]) | Structure (SMILES) | antimalarial / antiplasmodial activity in vitro (P. falciparum 3D7 strain; 3D7 strain) | other results
1 | 0.14 µM | CCN(CC)c1ccc(/C=C/c2cc[n+](CCCCCCCC[n+]3ccc(/C=C/c4ccc(N(CC)CC)cc4)c(C)c3)cc2C)cc1.[Br-].[Br-] [PRC-8, 1,1′-(octane-1,8-diyl)bis{4-[(E)-4-(diethylamino)styryl]-3-methylpyridin-1-ium} dibromide] | potent antimalarial activity | –
2 | 0.2 µM | CCN(CC)c1ccc(/C=C/c2cc[n+](CCOCCOCC[n+]3ccc(/C=C/c4ccc(N(CC)CC)cc4)c(C)c3)cc2C)cc1 [PRC-20, 1,1′-(3,6-dioxaoctane-1,8-diyl)bis{4-[(E)-4-(diethylamino)styryl]-3-methylpyridin-1-ium} diiodide] | – | –
3 | 0.29 µM | Cc1c[n+](CCCCCCCCCC[n+]2ccc(/C=C/c3ccc(N4CCCC4)cc3)c(C)c2)ccc1/C=C/c1ccc(N2CCCC2)cc1 [EMA368, 1,1′-(decane-1,10-diyl)bis{3-methyl-4-[(E)-4-(pyrrolidin-1-yl)styryl]pyridin-1-ium} dibromide] | – | –
4 | 0.15 µM | CCN(CC)c1ccc(/C=C/c2cc[n+](CCCCCCCCCC[n+]3ccc(/C=C/c4ccc(N(CC)CC)cc4)cc3)cc2)cc1.[Br-].[Br-] [PRC-39, 1,1′-(decane-1,10-diyl)bis{4-[(E)-4-(diethylamino)styryl]pyridin-1-ium} dibromide] | potent antimalarial activity | –
5 | 0.25 µM | CCN(CC)c1ccc(/C=C/c2cc[n+](CCOCCOCCOCC[n+]3ccc(/C=C/c4ccc(N(CC)CC)cc4)c(C)c3)cc2C)cc1 [PRC-28, 1,1′-(3,6,9-trioxaundecane-1,11-diyl)bis{4-[(E)-4-(diethylamino)styryl]-3-methylpyridin-1-ium} dichloride] | – | –
6 | – | Nc1c(/N=N/c2ccc(-c3ccc(/N=N/c4cc(S(=O)(=O)[O-])c5ccccc5c4N)cc3)cc2)cc(S(=O)(=O)[O-])c2ccccc12.[Na+].[Na+] [Congo Red, reference compound] | did not exhibit significant antiplasmodial activity | IC50 (P. falciparum 3D7 strain; 3D7 strain, 48 h, Table 2, read-out: IC50 in 3D7 strain (μM) ± SEM): > 15 µM
7 | 0.52 µM | Cc1c[n+](CCCCCCCCCC[n+]2ccc(/C=C/c3ccc(N(c4ccccc4)c4ccccc4)cc3)c(C)c2)ccc1/C=C/c1ccc(N(c2ccccc2)c2ccccc2)cc1 [EMA366, 1,1′-(decane-1,10-diyl)bis{4-[(E)-4-(diphenylamino)styryl]-3-methylpyridin-1-ium} dibromide] | – | –
8 | 0.46 µM | CCN(CC)c1ccc(/C=C/c2cc[n+](Cc3ccc(C[n+]4ccc(/C=C/c5ccc(N(CC)CC)cc5)c(C)c4)cc3)cc2C)cc1 [PRC-29, 1,1′-[1,4-phenylenebis(methylene)]bis{4-[(E)-4-(diethylamino)styryl]-3-methylpyridin-1-ium} dibromide] | – | –
9 | – | Cc1ccc2c(c1)sc(-c1ccc(N(C)C)cc1)[n+]2C.[Cl-] [ThT, Thioflavin T, reference compound] | did not exhibit significant antiplasmodial activity | IC50 (P. falciparum 3D7 strain; Plasmodium falciparum, 3D7 strain, 48 h, Table 2, read-out: IC50 in 3D7 strain (μM) ± SEM): 1.57 ± 0.23 µM
10 | 0.1 µM | CCN(CC)c1ccc(/C=C/c2cc[n+](CCCCCCCCCC[n+]3ccc(/C=C/c4ccc(N(CC)CC)cc4)c(Br)c3)cc2Br)cc1.[Br-].[Br-] [PRC-42, 1,1′-(decane-1,10-diyl)bis{3-bromo-4-[(E)-4-(diethylamino)styryl]pyridin-1-ium} dibromide] | potent antimalarial activity | –
11 | 0.12 µM | Cc1c[n+](CCCCCCCCCC[n+]2ccc(/C=C/c3ccc(N(C)C)cc3)c(C)c2)ccc1/C=C/c1ccc(N(C)C)cc1.[Br-].[Br-] [EMA357, 1,1′-(decane-1,10-diyl)bis{4-[(E)-4-(dimethylamino)styryl]-3-methylpyridin-1-ium} dibromide] | potent antimalarial activity | –
12 | 0.1 µM | CCN(CC)c1ccc(/C=C/c2cc[n+](CCCCCCCCCC[n+]3ccc(/C=C/c4ccc(N(CC)CC)cc4)c(Cl)c3)cc2Cl)cc1.[Br-].[Br-] [PRC-50, 1,1′-(decane-1,10-diyl)bis{3-chloro-4-[(E)-4-(diethylamino)styryl]pyridin-1-ium} dibromide] | potent antimalarial activity | –
13 | – | O=C(NCNc1c2c(nc3cc(Cl)ccc13)CCCC2)c1ccc2nc(-c3ccc(Cl)cc3)c3c(c2c1)NCCC3 [DP128, reference compound] | – | Therapeutic index in vitro [1]: 75.4; IC50 (P. falciparum 3D7 strain; Plasmodium falciparum, 3D7, 48 h, read-out: IC50 in 3D7 strain (μM) ± SEM): 0.65 ± 0.14 µM
14 | 0.11 µM | Cc1c[n+](CCCCCCCCCC[n+]2ccc(/C=C/c3ccc(N(C)CCC#N)cc3)c(C)c2)ccc1/C=C/c1ccc(N(C)CCC#N)cc1.[Br-].[Br-] [EMA359, 1,1′-(decane-1,10-diyl)bis{4-{(E)-4-[(2-cyanoethyl)methylamino]styryl}-3-methylpyridin-1-ium} dibromide] | potent antimalarial activity | –
15 | 0.54 µM | CCN(CC)c1ccc(/C=C/c2cc[n+](Cc3cccc(C[n+]4ccc(/C=C/c5ccc(N(CC)CC)cc5)c(C)c4)c3)cc2C)cc1 [PRC-31, 1,1′-[1,3-phenylenebis(methylene)]bis{4-[(E)-4-(diethylamino)styryl]-3-methylpyridin-1-ium} dibromide] | – | –
16 | 0.05 µM | CCN(CC)c1ccc(/C=C/c2cc[n+](CCCCCCCCC[n+]3ccc(/C=C/c4ccc(N(CC)CC)cc4)c(C)c3)cc2C)cc1.[Br-].[Br-] [PRC-25, 1,1′-(nonane-1,9-diyl)bis{4-[(E)-4-(diethylamino)styryl]-3-methylpyridin-1-ium} dibromide] | potent antimalarial activity | IC50 (P. falciparum 3D7 strain; Plasmodium falciparum, 3D7 strain, read-out: IC50 in P. falciparum in vitro cultures): 0.047 µM
17 | 0.06 µM | CCN(CC)c1ccc(/C=C/c2cc[n+](CCCCCCCCCCCC[n+]3ccc(/C=C/c4ccc(N(CC)CC)cc4)c(C)c3)cc2C)cc1.[Br-].[Br-] [PRC-15, 1,1′-(dodecane-1,12-diyl)bis{4-[(E)-4-(diethylamino)styryl]-3-methylpyridin-1-ium} dibromide] | potent antimalarial activity | –
18 | 0.42 µM | CCN(CC)c1ccc(/C=C/c2cc[n+](CCCC[n+]3ccc(/C=C/c4ccc(N(CC)CC)cc4)c(C)c3)cc2C)cc1 [PRC-5, 1,1′-(butane-1,4-diyl)bis{4-[(E)-4-(diethylamino)styryl]-3-methylpyridin-1-ium} dibromide] | – | –
19 | 0.06 µM | CCN(CC)c1ccc(/C=C/c2cc[n+](CCCCCCCCCCC[n+]3ccc(/C=C/c4ccc(N(CC)CC)cc4)c(C)c3)cc2C)cc1.[Br-].[Br-] [PRC-14, 1,1′-(undecane-1,11-diyl)bis{4-[(E)-4-(diethylamino)styryl]-3-methylpyridin-1-ium} dibromide] | potent antimalarial activity | –

Row | Structure (SMILES) | IC50 (P. falciparum 3D7 strain; [2]) | antimalarial / antiplasmodial activity in vitro (P. falciparum 3D7 strain; 3D7 strain) | other results
20 | Cc1c[n+](CCCCCCCCCC[n+]2ccc(/C=C/c3ccc(N4CCOCC4)cc3)c(C)c2)ccc1/C=C/c1ccc(N2CCOCC2)cc1.[Br-].[Br-] [EMA377, 1,1′-(decane-1,10-diyl)bis{3-methyl-4-[(E)-4-morpholinostyryl]pyridin-1-ium} dibromide] | 0.06 µM | potent antimalarial activity | –
